Results as given in ChEMBL document CHEMBL4373740, “Synthesis and biological evaluation of new MET inhibitors with 1,6-naphthyridinone scaffold” (Eur J Med Chem, 2020).

Tests used:
[1] = Clearance in Sprague-Dawley rat at 5.0 mg/kg, ig measured for 15 min to 72 hrs by LC-MS/MS analysis; type: ADME, organism-based; details: in vivo, po
[2] = target: T1, Vascular endothelial growth factor receptor 3 (Homo sapiens, UniProt P35916); assay: (§1) Inhibition of recombinant human GST-tagged FLT4 catalytic domain (800 to 1297 residues) expressed in baculovirus expression system at 1 uM using biotin as substrate preincubated for 5 mins followed by substrate addition and measured after 30 to 60 mins in presence of ATP by HTRF assay relative to control
T1 sequence (P35916 whole entry, the tested form may be a part): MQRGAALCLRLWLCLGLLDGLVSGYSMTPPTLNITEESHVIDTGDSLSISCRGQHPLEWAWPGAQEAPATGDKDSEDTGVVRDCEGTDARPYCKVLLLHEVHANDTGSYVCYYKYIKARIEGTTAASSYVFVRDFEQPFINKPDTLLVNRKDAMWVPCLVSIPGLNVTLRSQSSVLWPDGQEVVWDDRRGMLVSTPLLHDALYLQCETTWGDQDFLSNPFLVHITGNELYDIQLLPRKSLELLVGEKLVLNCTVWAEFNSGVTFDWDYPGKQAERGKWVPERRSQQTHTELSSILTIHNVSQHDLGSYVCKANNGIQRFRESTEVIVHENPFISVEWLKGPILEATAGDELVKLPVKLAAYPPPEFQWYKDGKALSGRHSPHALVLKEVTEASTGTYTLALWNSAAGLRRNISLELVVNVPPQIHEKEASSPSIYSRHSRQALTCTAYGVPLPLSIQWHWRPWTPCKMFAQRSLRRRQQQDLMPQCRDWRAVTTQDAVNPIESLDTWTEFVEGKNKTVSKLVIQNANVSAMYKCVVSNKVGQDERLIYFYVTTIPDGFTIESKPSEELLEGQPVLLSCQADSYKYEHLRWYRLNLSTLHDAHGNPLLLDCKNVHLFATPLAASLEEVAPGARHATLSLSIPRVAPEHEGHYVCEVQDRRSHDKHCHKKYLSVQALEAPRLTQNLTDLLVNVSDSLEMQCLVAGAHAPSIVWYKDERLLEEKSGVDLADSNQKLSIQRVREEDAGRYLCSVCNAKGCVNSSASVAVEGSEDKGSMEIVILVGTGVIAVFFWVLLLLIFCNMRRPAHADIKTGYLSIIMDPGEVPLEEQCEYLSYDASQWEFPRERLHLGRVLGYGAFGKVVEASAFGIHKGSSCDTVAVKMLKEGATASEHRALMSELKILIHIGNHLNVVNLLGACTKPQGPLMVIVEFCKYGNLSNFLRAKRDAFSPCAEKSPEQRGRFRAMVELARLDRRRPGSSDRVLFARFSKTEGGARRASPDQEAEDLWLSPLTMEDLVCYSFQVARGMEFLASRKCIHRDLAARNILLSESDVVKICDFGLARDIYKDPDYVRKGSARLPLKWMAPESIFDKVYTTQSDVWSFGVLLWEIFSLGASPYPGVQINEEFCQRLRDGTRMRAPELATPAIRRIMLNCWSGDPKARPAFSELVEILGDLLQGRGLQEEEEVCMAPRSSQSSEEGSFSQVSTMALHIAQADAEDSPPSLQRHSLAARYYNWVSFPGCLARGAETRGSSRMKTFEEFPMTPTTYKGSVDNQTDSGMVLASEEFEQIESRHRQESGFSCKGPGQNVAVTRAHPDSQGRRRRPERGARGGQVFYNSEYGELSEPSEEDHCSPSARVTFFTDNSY

[3] = target: Mitogen-activated protein kinase 9 (Homo sapiens) (UniProt P45984); assay: Inhibition of recombinant full length human His-tagged MAPK9 expressed in baculovirus expression system at 1 uM using biotin as substrate preincubated for 5 mins followed by substrate addition and measured after 30 to 60 mins in presence of ATP by HTRF assay relative to control
Mitogen-activated protein kinase 9 (Homo sapiens), sequence (P45984 whole entry, looked up, the tested form may be a part): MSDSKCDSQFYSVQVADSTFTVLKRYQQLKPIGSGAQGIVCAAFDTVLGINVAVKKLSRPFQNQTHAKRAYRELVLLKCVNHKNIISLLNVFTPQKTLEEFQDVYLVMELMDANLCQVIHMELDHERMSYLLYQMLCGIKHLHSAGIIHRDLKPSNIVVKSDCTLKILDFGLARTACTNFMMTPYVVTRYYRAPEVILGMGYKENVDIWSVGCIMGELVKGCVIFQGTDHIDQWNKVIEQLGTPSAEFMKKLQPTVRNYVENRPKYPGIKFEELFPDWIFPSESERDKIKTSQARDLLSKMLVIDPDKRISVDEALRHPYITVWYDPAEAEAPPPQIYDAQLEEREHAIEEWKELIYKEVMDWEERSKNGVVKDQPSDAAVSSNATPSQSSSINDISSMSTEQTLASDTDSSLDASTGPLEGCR

[4] = target: Hepatocyte growth factor receptor (Homo sapiens, UniProt P08581); assay: Inhibition of purified recombinant MET kinase domain (unknown origin) using biotin as substrate preincubated for 5 mins followed by substrate addition and measured after 30 to 60 mins in presence of ATP by HTRF assay
Hepatocyte growth factor receptor, sequence (P08581 whole entry, the tested form may be a part): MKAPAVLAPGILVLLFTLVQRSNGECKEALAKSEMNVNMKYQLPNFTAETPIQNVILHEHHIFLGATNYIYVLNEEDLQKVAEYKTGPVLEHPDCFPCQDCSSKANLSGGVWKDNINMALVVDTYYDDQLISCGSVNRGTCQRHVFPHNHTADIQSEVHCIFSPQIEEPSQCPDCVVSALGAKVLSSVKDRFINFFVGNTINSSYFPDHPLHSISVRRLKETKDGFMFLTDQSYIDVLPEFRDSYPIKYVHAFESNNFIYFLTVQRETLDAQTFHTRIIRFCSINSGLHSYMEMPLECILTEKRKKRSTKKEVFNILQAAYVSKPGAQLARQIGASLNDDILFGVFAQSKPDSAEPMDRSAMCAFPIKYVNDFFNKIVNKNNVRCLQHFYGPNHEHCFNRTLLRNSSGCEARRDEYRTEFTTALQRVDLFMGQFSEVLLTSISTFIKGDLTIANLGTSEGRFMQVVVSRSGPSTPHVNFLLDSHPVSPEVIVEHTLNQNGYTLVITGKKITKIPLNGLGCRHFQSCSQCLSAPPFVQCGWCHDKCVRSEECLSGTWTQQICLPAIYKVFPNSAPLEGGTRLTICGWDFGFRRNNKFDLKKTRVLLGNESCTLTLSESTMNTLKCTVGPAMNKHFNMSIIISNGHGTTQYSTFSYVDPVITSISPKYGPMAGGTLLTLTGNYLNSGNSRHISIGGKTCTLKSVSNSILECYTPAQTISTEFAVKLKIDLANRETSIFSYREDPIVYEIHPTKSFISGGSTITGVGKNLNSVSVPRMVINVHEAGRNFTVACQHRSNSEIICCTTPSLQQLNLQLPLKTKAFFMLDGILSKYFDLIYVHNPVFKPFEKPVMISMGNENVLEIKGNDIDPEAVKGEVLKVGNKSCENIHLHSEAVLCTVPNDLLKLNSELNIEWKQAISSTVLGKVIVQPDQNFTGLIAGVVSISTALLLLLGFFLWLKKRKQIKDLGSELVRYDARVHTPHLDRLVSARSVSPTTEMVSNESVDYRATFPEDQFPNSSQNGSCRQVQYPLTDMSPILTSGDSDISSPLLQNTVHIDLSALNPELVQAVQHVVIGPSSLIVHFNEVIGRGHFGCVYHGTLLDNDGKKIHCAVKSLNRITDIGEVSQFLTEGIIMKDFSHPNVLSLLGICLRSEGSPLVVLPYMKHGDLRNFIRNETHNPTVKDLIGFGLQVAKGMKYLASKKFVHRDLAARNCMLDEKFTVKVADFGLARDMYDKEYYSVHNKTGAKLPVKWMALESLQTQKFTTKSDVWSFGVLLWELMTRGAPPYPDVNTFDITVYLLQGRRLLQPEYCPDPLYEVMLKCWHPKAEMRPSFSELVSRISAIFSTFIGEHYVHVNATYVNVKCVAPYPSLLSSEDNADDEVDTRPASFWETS

[5] = target: Tyrosine-protein kinase receptor TYRO3 (Homo sapiens) (UniProt Q06418); assay: as §1, with “RSE” for “FLT4”, “(451” for “(800”, “890” for “1297”
[6] = Half life in Sprague-Dawley rat at 5.0 mg/kg, ig measured for 15 min to 72 hrs by LC-MS/MS analysis; type: ADME, organism-based; details: in vivo, po
[7] = Clearance in Sprague-Dawley rat at 1.0 mg/kg, iv measured for 5 min to 72 hrs by LC-MS/MS analysis; type: ADME, organism-based; details: in vivo
[8] = target: Ephrin type-B receptor 4 (Homo sapiens) (UniProt P54760); assay: Inhibition of recombinant full length human His-tagged EPHB4 expressed in baculovirus expression system at 1 uM using biotin as substrate preincubated for 5 mins followed by substrate addition and measured after 30 to 60 mins in presence of ATP by HTRF assay relative to control
[9] = target: Serine/threonine-protein kinase PLK1 (Homo sapiens) (UniProt P53350); assay: Inhibition of recombinant full length human His-tagged PLK1 expressed in baculovirus expression system at 1 uM using biotin as substrate preincubated for 5 mins followed by substrate addition and measured after 30 to 60 mins in presence of ATP by HTRF assay relative to control
[10] = target: cAMP-dependent protein kinase catalytic subunit alpha (Homo sapiens) (UniProt P17612); assay: Inhibition of recombinant full length human His-tagged PRKACA expressed in Escherichia coli at 1 uM using biotin as substrate preincubated for 5 mins followed by substrate addition and measured after 30 to 60 mins in presence of ATP by HTRF assay relative to control
in vitro = details: human, liver microsomes
[11] = Oral bioavailability in Sprague-Dawley rat at 5.0 mg/kg, ig measured for 15 min to 72 hrs by LC-MS/MS analysis; type: ADME, organism-based; details: in vivo
[12] = target: Tyrosine-protein kinase Lyn (Homo sapiens) (UniProt P07948); assay: Inhibition of recombinant full length human GST-tagged LYN B expressed in baculovirus expression system at 1 uM using biotin as substrate preincubated for 5 mins followed by substrate addition and measured after 30 to 60 mins in presence of ATP by HTRF assay relative to control
[13] = target: Mitogen-activated protein kinase kinase kinase 20 (Homo sapiens) (UniProt Q9NYL2); assay: Inhibition of recombinant full length human GST-tagged ZAK expressed in baculovirus expression system at 1 uM using biotin as substrate preincubated for 5 mins followed by substrate addition and measured after 30 to 60 mins in presence of ATP by HTRF assay relative to control
[14] = Cmax in Sprague-Dawley rat at 1.0 mg/kg, iv measured for 5 min to 72 hrs by LC-MS/MS analysis; type: ADME, organism-based; design: dose 1 mg/kg, route intravenous; details: in vivo
[15] = target: Tyrosine-protein kinase JAK2 (Homo sapiens) (UniProt O60674); assay: Inhibition of recombinant full length human GST-tagged JAK2 expressed in baculovirus expression system at 1 uM using biotin as substrate preincubated for 5 mins followed by substrate addition and measured after 30 to 60 mins in presence of ATP by HTRF assay relative to control
[16] = target: Tyrosine-protein kinase CSK (Homo sapiens) (UniProt P41240); assay: Inhibition of recombinant full length human His-tagged CSK at 1 uM using biotin as substrate preincubated for 5 mins followed by substrate addition and measured after 30 to 60 mins in presence of ATP by HTRF assay relative to control
[17] = target: Proto-oncogene tyrosine-protein kinase ROS (Homo sapiens) (UniProt P08922); assay: as §1, with “ROS1” for “FLT4”, “(1883” for “(800”, “2347” for “1297”
[18] = target: Serine/threonine-protein kinase B-raf (Homo sapiens) (UniProt P15056); assay: Inhibition of recombinant full length human GST-tagged BRAF expressed in baculovirus expression system at 1 uM using biotin as substrate preincubated for 5 mins followed by substrate addition and measured after 30 to 60 mins in presence of ATP by HTRF assay relative to control
[19] = target: T1, Vascular endothelial growth factor receptor 3; assay: Inhibition of recombinant human GST-tagged FLT4 catalytic domain (800 to 1297 residues) expressed in baculovirus expression system using biotin as substrate preincubated for 5 mins followed by substrate addition and measured after 30 to 60 mins in presence of ATP by HTRF assay
[20] = target: Macrophage colony-stimulating factor 1 receptor (Homo sapiens) (UniProt P07333); assay: Inhibition of recombinant full length human His-tagged CSF1R expressed in baculovirus expression system at 1 uM using biotin as substrate preincubated for 5 mins followed by substrate addition and measured after 30 to 60 mins in presence of ATP by HTRF assay relative to control
[21] = target: Serine/threonine-protein kinase TBK1 (Homo sapiens) (UniProt Q9UHD2); assay: Inhibition of recombinant full length human GST-tagged TBK1 expressed in insect cells at 1 uM using biotin as substrate preincubated for 5 mins followed by substrate addition and measured after 30 to 60 mins in presence of ATP by HTRF assay relative to control
Serine/threonine-protein kinase TBK1 (Homo sapiens), sequence (Q9UHD2 whole entry): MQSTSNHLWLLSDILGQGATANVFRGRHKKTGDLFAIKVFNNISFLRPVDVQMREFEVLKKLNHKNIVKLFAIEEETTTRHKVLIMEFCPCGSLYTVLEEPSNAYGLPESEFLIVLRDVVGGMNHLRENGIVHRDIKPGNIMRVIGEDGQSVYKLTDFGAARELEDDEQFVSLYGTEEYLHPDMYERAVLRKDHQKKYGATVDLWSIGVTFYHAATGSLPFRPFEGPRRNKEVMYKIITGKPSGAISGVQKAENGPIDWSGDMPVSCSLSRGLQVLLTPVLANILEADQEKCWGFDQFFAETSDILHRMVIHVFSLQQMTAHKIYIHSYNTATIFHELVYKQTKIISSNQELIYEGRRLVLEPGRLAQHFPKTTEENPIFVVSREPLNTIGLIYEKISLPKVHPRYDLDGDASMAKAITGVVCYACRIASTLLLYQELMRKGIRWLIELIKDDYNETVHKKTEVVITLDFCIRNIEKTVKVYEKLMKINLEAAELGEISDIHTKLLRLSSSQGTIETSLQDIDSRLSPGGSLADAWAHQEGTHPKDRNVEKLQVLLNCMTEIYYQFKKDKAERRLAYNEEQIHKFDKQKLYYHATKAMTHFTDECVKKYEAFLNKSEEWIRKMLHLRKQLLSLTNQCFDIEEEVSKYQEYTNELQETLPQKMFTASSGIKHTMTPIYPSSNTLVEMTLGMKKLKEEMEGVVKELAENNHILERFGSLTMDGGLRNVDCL

[22] = target: Mitogen-activated protein kinase 3 (Homo sapiens) (UniProt P27361); assay: Inhibition of recombinant full length human GST-tagged MAPK3 expressed in Escherichia coli at 1 uM using biotin as substrate preincubated for 5 mins followed by substrate addition and measured after 30 to 60 mins in presence of ATP by HTRF assay relative to control
[23] = target: Tyrosine-protein kinase JAK1 (Homo sapiens) (UniProt P23458); assay: Inhibition of recombinant full length human GST-tagged JAK1 expressed in baculovirus expression system at 1 uM using biotin as substrate preincubated for 5 mins followed by substrate addition and measured after 30 to 60 mins in presence of ATP by HTRF assay relative to control
Tyrosine-protein kinase JAK1 (Homo sapiens), sequence (P23458 whole entry): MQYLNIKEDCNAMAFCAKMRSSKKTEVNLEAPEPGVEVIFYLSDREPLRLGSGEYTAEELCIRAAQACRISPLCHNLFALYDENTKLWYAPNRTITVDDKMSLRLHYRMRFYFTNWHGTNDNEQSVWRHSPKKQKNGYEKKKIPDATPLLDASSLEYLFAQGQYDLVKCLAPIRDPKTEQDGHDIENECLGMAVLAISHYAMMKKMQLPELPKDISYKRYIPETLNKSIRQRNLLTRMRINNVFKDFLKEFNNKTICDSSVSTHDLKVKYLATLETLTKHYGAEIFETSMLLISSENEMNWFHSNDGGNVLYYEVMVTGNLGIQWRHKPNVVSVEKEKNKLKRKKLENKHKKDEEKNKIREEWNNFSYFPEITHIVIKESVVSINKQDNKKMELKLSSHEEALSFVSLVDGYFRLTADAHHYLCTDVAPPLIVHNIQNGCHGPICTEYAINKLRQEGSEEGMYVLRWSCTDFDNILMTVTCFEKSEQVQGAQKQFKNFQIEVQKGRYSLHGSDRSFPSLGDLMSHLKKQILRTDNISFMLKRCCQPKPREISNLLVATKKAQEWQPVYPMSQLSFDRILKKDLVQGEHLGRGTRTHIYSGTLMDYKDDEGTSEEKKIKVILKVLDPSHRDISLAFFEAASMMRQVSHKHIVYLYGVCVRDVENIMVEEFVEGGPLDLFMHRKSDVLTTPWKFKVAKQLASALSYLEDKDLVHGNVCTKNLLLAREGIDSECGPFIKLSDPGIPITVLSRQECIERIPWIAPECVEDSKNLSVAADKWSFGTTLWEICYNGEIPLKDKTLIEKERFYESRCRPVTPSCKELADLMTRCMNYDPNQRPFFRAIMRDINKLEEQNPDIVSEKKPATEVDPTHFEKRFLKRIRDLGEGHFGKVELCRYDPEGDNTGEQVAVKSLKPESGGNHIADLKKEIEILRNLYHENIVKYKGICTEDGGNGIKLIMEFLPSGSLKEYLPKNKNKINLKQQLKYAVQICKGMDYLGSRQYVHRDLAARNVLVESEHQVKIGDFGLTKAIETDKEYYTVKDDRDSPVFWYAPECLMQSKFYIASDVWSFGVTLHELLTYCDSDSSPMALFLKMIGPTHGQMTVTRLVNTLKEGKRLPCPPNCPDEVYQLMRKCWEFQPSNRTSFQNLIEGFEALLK

[24] = target: Dual specificity tyrosine-phosphorylation-regulated kinase 3 (Homo sapiens) (UniProt O43781); assay: Inhibition of recombinant human GST-tagged DYRK3 expressed in baculovirus system at 1 uM using biotin as substrate preincubated for 5 mins followed by substrate addition and measured after 30 to 60 mins in presence of ATP by HTRF assay relative to control

- CL/F [1]: 0.02 L/h/kg
- inhibition [2]: < 50%
- inhibition [3]: < 50%
- IC50 [4]: 0.0071 µM
- inhibition [5]: > 80%
- half-life [6]: 20.6 h
- clearance [7]: 0.01 L/h/kg
- inhibition [8]: 50 to 79%
- inhibition [9]: < 50%
- inhibition [10]: < 50%
- half-life (in vitro): 14.7 h
- bioavailability [11]: 58%
- inhibition [12]: < 50%
- inhibition [13]: < 50%
- Cmax [14]: 6.5 µg/mL
- inhibition [15]: < 50%
- inhibition [16]: < 50%
- inhibition [17]: < 50%
- inhibition [18]: < 50%
- IC50 [19]: 0.591 µM
- inhibition [20]: < 50%
- inhibition [21]: < 50%
- inhibition [22]: < 50%
- inhibition [23]: < 50%
- inhibition [24]: < 50%
SMILES: Cn1cc(-c2ccc(F)cc2)c(=O)c2c(Nc3ccc(Oc4ccnc(NC(=O)C5CC5)c4)c(F)c3)nccc21
